One assay deals with DSS-induced colitis. As to the kind of experiment: DSS-induced colitis. In kind it is in vivo, male C57 mice. As to the method:
The 8 to 10 week old male C57 mice (18-20 g) were used in the study. Animals were divided into two experimental groups: vehicle control and compound of formula (Ia). Same day animals were provided 2% dextran sulfate sodium (DSS) solution in water for 7 days. Animals were treated with vehicle or compound of formula (Ia) (15 mg/kg) by oral route daily for 10 days. Body weight was recorded daily for 10 days. Disease activity score was evaluated based on stool consistency and rectal bleeding (Kim JJ et al., 2012). Relative colon length was measured. Colon myeloperoxidase (MPO) activity was estimated (Kim JJ et al., 2012).

Another assay deals with TNBS-induced colitis. As to the kind of experiment: TNBS-induced colitis. The assay is classed as in vivo, Female BalbC mice. As to conditions: 15 mg/kg orally, Balb/c mice. As to the method: Female BalbC mice (6-8 weeks old) were used in the study. Mice were sensitized by topical application of 1% trinitrobenzene sulfonic acid (TNBS) in acetone/olive oil solution (4:1). After 7 days of sensitization, mice were challenged with 2.5% TNBS solution by intra-rectal route administered 5 mL/kg of body weight under anesthesia. Mice were monitored for development of disease over 5 days. TNBS-treated mice were randomly divided into 2 groups: TNBS-control (TNBS) and TNBS + compound of formula (Ia) (15 mg/kg, orally). Treatment was started on one day before TNBS challenge (2.5 %) and continued up to day 5 after TNBS challenge (2.5%). Animals were monitored for body weight change daily for 5 days. Intestinal permeability was estimated by Evans blue method (Han ED et al., 2002).

`O=C(O)CNC(=O)c1c(O)c2ccccc2n(OCC2CC2)c1=O` [Compound of formula (Ia), Desidustat]: in the assay with DSS-induced colitis (15 mg/kg oral daily for 10 days, colon myeloperoxidase activity), the “reduction of colon MPO against vehicle control” value worked out at 74.9 ± 5.0%. For the same compound, the “decrease in disease activity score when compared with vehicle control” value in the assay with DSS-induced colitis (15 mg/kg oral daily for 10 days, score based on stool consistency and rectal bleeding) came to 31.8 ± 9.8%. In addition, the “increase in body weight against vehicle control” value with DSS-induced colitis (15 mg/kg oral daily, after ten days of treatment, 2% DSS for 7 days) came out at 49.0 ± 12.9%. Further, the “weight gain when compared with vehicle control” value in the assay on TNBS-induced colitis (5th day after TNBS challenge) is recorded as 17.4 ± 1.4%. For the same compound, the “decrease in intestinal permeability when compared against vehicle control” value with TNBS-induced colitis (Evans blue method) is listed as 51.7 ± 4.4%.

The values are drawn from patent publication US20230233550A1, “TREATMENT FOR THE INFLAMMATORY BOWEL DISEASE” (priority 2020, published 2023).
